Test results reported in patent US20200003756A1, “METHOD FOR OBSERVING SEBACEOUS GLAND” (MANDOM CORPORATION, priority 2017, published 2020).

Tested on: sebaceous-gland-structure A
Assay: Classification of the state of lipid droplets in cells of the outermost layer of the sebaceous gland after suspension culture (Example 1)
Format: cell-based
Parameters: key to State of lipid droplet in cell contained in outermost layer of sebaceous gland FIG. 6(A) / State of lipid droplet in cell contained in outermost layer of sebaceous gland FIG. 6(B) / State of lipid droplet in cell contained in outermost layer of sebaceous gland FIG. 6(C) / State of lipid droplet in cell contained in outermost layer of sebaceous gland FIG. 6(D) / State of lipid droplet in cell contained in outermost layer of sebaceous gland FIG. 6(E) / State of lipid droplet in cell contained in outermost layer of sebaceous gland FIG. 6(F) / State of lipid droplet in cell contained in outermost layer of sebaceous gland FIG. 6(G): “◯ (open circle)” shows that a given state shown in FIG. 6 was observed; —: “-” shows that the given state shown in FIG. 6 was not observed
Conditions: for State of lipid droplet in cell contained in outermost layer of sebaceous gland FIG. 6(A): (A) No lipid droplet is found in the cell; for State of lipid droplet in cell contained in outermost layer of sebaceous gland FIG. 6(B): (B) A few lipid droplets are found in the cell; for State of lipid droplet in cell contained in outermost layer of sebaceous gland FIG. 6(C): (C) There is a space of lipid droplets in the cell; for State of lipid droplet in cell contained in outermost layer of sebaceous gland FIG. 6(D): (D) Lipid droplets start erosion of the nucleus; for State of lipid droplet in cell contained in outermost layer of sebaceous gland FIG. 6(E): (E) Lipid droplets start being connected to each other; for State of lipid droplet in cell contained in outermost layer of sebaceous gland FIG. 6(F): (F) The cell is fully occupied by lipid droplets; for State of lipid droplet in cell contained in outermost layer of sebaceous gland FIG. 6(G): (G) The cell is disappeared
Source text: Under a stereoscopic microscope, a subcutaneous tissue was removed from a skin tissue by using scissors. Next, collagenous fibers were removed from the dermis in the skin tissue by using scissors and tweezers after removing the subcutaneous tissue, to obtain a sebaceous-gland-structure in which a sebaceous gland was exposed (hereinafter referred to as “sebaceous-gland-structure A”). […] In the sebaceous-gland-structure A, a sebaceous gland was exposed.
The sebaceous-gland-structure A obtained in Preparation Example 6 was immersed in a 4% by mass PFA-containing PBS solution at 4° C. for 30 minutes to fix the sebaceous-gland-structure A, thereby giving a fixed sample. The resulting fixed sample was washed by incubating the sample in a 2% by mass BSA-containing PBSTT solution at 4° C. for 1 hour. Washing was carried out three times.
The fixed sample after the washing was incubated in the primary antibody-containing solution obtained in Preparation Example 2 at 4° C. for 24 hours. The fixed sample after the incubation was washed by incubating the fixed sample in a […] by mass BSA-containing PBSTT solution at 4° C. for 1 hour. Washing was carried out three times.
The fixed sample after the washing was incubated in the staining reagent A obtained in Preparation Example 3 at 4° C. for 12 hours, to stain the sebaceous gland basal cell and the nucleus present in the outermost layer of the sebaceous gland. The stained fixed sample was washed by incubating the sample in a 2% by mass BSA-containing PBSTT solution at 4° C. for 1 hour. Washing was carried out three times.
The fixed sample after the washing was incubated in the staining reagent B obtained in Preparation Example 4 at room temperature (25° C.) for 30 minutes, to stain the sebum contained in the sebaceous-gland-structure A. The stained fixed sample was washed by incubating the sample in a 2% by mass BSA-containing PBSTT solution at 4° C. for 1 hour. Washing was carried out three times.
The fixed sample after the washing was subjected to incubation in a 20% by mass glycerol-containing PBS solution at 4° C. for 1 hour, incubation in a 50% by mass glycerol-containing PBS solution at 4° C. for 1 hour, and incubation in a 80% by mass glycerol-containing PBS solution at 4° C. for 1 hour, to substitute the moisture contained in the fixed sample with glycerol.
An appropriate amount (for example, 50 μL) of an 80 by mass aqueous glycerol solution was added to a region surrounded by the spaced contained in the spacer-attached coverslip obtained in Preparation Example 5. Next, the glycerol-substituted sebaceous-gland-structure A was placed on the region surrounded by the spacer contained in the spacer-attached coverslip so that the side of the sebaceous gland was directed downwards. Thereafter, the region surrounded by the spacer contained in the spacer-attached coverslip was covered with a round-shaped coverslip (diameter: 12 mm), to obtain an observation sample.
Linoleic acid was added to the mixed medium obtained in Preparation Example 1 (hereinafter also referred to as “test sample A”) so that the concentration of linoleic acid was 1×10^−4 M, to obtain a test sample B. In addition, linoleic acid was added to the mixed medium obtained in Preparation Example 1 so that the concentration of linoleic acid was 1×10^−3 M, to obtain a test sample C.
One milliliter of the test sample A was added to each well of a 24-well plate. Next, the sebaceous-gland-structure A obtained in Preparation Example 6 was cultured in a suspended state in the test sample A contained in each well of the 24-well plate in the presence of 5% by volume carbon dioxide at 37° C. for 24 hours, to contact the sebaceous-gland-structure A with the test sample A (Experiment number 1). In addition, the sebaceous-gland-structure A was contacted with the test sample A in the same manner as in Experiment number 1 except that in Experiment number 1, 48-hour culture was carried out in place of 24-hour culture (Experiment number 2). […]

[1] = linoleic acid 1 × 10^−3 M, culture 24 h (Experiment 5)
[2] = linoleic acid 1 × 10^−3 M, culture 48 h (Experiment 6)
[3] = linoleic acid 1 × 10^−4 M, culture 24 h (Experiment 3)
[4] = linoleic acid 1 × 10^−4 M, culture 48 h (Experiment 4)

Compound: CCCCC/C=C\C/C=C\CCCCCCCC(=O)O [linoleic acid, Linoleic acid]
- State of lipid droplet in cell contained in outermost layer of sebaceous gland FIG. 6(A) [1]: ◯
- State of lipid droplet in cell contained in outermost layer of sebaceous gland FIG. 6(B) [1]: ◯
- State of lipid droplet in cell contained in outermost layer of sebaceous gland FIG. 6(C) [1]: ◯
- State of lipid droplet in cell contained in outermost layer of sebaceous gland FIG. 6(D) [1]: ◯
- State of lipid droplet in cell contained in outermost layer of sebaceous gland FIG. 6(E) [1]: ◯
- State of lipid droplet in cell contained in outermost layer of sebaceous gland FIG. 6(F) [1]: —
- State of lipid droplet in cell contained in outermost layer of sebaceous gland FIG. 6(G) [1]: ◯
- State of lipid droplet in cell contained in outermost layer of sebaceous gland FIG. 6(A) [2]: ◯
- State of lipid droplet in cell contained in outermost layer of sebaceous gland FIG. 6(B) [2]: ◯
- State of lipid droplet in cell contained in outermost layer of sebaceous gland FIG. 6(C) [2]: ◯
- State of lipid droplet in cell contained in outermost layer of sebaceous gland FIG. 6(D) [2]: ◯
- State of lipid droplet in cell contained in outermost layer of sebaceous gland FIG. 6(E) [2]: ◯
- State of lipid droplet in cell contained in outermost layer of sebaceous gland FIG. 6(F) [2]: ◯
- State of lipid droplet in cell contained in outermost layer of sebaceous gland FIG. 6(G) [2]: ◯
- number of cells progressing sebum production (tendency from Table 2) (linoleic acid 1×10^−4 M and 1×10^−3 M, culture 24 h and 48 h): the higher the linoleic acid concentration in the test sample is and the longer the culture time is, the larger the number of cells progressing sebum production is
- State of lipid droplet in cell contained in outermost layer of sebaceous gland FIG. 6(A) [3]: ◯
- State of lipid droplet in cell contained in outermost layer of sebaceous gland FIG. 6(B) [3]: ◯
- State of lipid droplet in cell contained in outermost layer of sebaceous gland FIG. 6(C) [3]: —
- State of lipid droplet in cell contained in outermost layer of sebaceous gland FIG. 6(D) [3]: —
- State of lipid droplet in cell contained in outermost layer of sebaceous gland FIG. 6(E) [3]: —
- State of lipid droplet in cell contained in outermost layer of sebaceous gland FIG. 6(F) [3]: —
- State of lipid droplet in cell contained in outermost layer of sebaceous gland FIG. 6(G) [3]: —
- State of lipid droplet in cell contained in outermost layer of sebaceous gland FIG. 6(A) [4]: ◯
- State of lipid droplet in cell contained in outermost layer of sebaceous gland FIG. 6(B) [4]: ◯
- State of lipid droplet in cell contained in outermost layer of sebaceous gland FIG. 6(C) [4]: ◯
- State of lipid droplet in cell contained in outermost layer of sebaceous gland FIG. 6(D) [4]: —
- State of lipid droplet in cell contained in outermost layer of sebaceous gland FIG. 6(E) [4]: —
- State of lipid droplet in cell contained in outermost layer of sebaceous gland FIG. 6(F) [4]: —
- State of lipid droplet in cell contained in outermost layer of sebaceous gland FIG. 6(G) [4]: —
